This note sets out measurements from ChEMBL document CHEMBL1201862, “PubChem BioAssay data set” (2004).

What is called IC50 is the concentration at which inhibition is half-maximal. In general, EC50 refers to the concentration giving half of the maximal effect. By CC50 is commonly meant the concentration that lowers cell viability or growth by half.

The target of one data set is Ephrin type-A receptor 4 (Mus musculus, UniProt Q03137). In words: EphA4 ligand-binding antagonists – biochemical, colorimetric, mouse EphA4, primary screen (AID 689). The class given is functional.
Ephrin type-A receptor 4, sequence (Q03137 whole entry): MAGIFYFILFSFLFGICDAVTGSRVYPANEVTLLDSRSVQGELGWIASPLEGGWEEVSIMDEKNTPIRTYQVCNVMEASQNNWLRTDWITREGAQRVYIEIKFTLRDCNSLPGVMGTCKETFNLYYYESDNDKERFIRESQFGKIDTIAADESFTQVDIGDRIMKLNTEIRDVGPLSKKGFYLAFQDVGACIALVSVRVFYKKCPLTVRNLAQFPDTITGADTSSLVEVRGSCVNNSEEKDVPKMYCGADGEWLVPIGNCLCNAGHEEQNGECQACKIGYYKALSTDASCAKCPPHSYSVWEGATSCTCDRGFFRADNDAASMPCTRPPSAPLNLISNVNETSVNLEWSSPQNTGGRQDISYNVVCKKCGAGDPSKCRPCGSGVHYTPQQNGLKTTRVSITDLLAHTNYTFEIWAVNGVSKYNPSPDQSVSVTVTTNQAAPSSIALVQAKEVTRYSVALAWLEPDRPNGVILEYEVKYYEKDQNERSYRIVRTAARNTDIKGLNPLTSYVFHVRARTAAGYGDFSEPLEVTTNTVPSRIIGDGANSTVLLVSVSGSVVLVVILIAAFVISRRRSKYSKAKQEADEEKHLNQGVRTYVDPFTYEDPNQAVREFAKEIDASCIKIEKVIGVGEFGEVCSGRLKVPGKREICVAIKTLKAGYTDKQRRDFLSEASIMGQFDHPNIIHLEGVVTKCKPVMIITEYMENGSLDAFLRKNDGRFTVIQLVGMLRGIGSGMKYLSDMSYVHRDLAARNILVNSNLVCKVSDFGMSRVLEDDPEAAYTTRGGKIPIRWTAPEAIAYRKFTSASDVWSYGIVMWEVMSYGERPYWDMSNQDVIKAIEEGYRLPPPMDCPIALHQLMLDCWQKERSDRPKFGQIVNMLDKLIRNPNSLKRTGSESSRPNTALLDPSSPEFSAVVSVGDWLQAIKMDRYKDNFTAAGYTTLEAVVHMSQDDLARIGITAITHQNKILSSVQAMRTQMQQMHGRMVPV
In data set [1] the target is E3 ubiquitin-protein ligase XIAP (Homo sapiens, UniProt P98170). In words: Counter Screen using XIAP-Bir3 for Chemical Antagonists of Bir1/2 domains of IAP-family anti-apoptotic proteins. [Related pubchem assays (depositor defined):AID1018, AID1449, AID1514, AID1638, AID1749, AID1750, AID488957, AID488963]. (In general: Counterscreens check selectivity or assay interference.)
E3 ubiquitin-protein ligase XIAP, sequence (P98170 whole entry): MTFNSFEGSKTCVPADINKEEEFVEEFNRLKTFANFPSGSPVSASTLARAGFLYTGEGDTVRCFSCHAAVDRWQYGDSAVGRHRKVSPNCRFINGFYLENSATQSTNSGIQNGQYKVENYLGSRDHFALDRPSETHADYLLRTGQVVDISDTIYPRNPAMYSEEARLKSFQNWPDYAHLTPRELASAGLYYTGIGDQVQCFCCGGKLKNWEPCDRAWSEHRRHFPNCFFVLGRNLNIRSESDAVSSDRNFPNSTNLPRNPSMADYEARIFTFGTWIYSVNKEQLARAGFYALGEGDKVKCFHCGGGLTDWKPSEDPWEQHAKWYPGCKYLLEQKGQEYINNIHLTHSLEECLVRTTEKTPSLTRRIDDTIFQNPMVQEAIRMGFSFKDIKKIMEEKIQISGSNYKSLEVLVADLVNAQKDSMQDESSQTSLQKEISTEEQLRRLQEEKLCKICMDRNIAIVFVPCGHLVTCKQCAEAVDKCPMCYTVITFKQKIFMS

Data set [2] can be described thus: HEK-293T cell viability reduction – luminescence, B-cell screen hits, cytotoxicity control for BCR NF-kB inhibitor project, dose response (AID 489021).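 Further: HEK-293T cells carrying an NF-kB luciferase reporter; cells exposed to compound for about 14 hours before viability readout.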 In kind it is functional, cell-based.
Data set [3] concerns the target G-protein coupled receptor 55 (Homo sapiens, UniProt Q9Y2T6). In words: selective activators of receptor GPR55 – imaging, U2OS cells, beta-arrestin-GFP redistribution, primary screen (AID 1961). In kind it is functional.
Another data set addresses T1, Hexokinase-1 (Homo sapiens, UniProt P19367).
T1 sequence (P19367 whole entry): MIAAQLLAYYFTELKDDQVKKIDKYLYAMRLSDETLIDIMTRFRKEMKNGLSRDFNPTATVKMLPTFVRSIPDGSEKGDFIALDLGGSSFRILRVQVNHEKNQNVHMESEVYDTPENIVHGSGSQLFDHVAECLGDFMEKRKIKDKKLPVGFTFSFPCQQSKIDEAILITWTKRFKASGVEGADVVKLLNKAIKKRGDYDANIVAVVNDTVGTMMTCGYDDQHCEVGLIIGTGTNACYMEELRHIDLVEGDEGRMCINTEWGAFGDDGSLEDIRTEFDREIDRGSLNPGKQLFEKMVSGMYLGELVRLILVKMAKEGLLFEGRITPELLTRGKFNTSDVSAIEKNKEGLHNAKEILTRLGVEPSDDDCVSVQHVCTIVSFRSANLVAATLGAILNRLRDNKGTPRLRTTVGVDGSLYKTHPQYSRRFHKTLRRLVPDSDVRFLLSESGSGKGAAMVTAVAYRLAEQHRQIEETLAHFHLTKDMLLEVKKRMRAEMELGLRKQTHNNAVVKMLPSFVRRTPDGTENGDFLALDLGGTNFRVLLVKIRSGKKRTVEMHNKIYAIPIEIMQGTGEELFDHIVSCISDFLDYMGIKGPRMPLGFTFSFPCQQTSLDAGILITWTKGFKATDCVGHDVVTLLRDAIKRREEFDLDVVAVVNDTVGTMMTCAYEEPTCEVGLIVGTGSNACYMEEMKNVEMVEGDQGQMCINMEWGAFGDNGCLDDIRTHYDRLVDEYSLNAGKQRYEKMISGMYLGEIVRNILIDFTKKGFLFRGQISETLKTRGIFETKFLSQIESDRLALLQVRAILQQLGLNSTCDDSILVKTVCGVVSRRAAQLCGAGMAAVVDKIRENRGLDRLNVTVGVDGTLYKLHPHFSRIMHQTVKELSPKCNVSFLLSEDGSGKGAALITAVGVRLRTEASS
Put plainly: HK1 enzyme activation by HKDC1 hits – biochemical, selectivity assay for HKDC1 activator project, dose response (AID 504762). The class given is functional.

The target of data set [4] is T2, Calpain-2 catalytic subunit (Sus scrofa, UniProt P43367).
T2 sequence (P43367 whole entry): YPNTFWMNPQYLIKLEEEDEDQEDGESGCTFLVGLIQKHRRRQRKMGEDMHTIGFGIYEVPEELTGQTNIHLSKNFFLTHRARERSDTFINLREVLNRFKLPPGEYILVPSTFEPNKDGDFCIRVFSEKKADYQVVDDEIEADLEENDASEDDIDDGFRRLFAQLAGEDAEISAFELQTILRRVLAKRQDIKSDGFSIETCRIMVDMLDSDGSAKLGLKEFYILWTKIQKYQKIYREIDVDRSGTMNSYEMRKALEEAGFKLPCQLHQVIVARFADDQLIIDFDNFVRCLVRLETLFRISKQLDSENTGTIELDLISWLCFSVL
Put plainly: m-calpain protease blockers, concentration series – biochemical, fluorogenic peptide substrate, dose response (AID 1420). In kind it is functional.

The target in another data set is T3, Hexokinase HKDC1 (Homo sapiens, UniProt Q2TB90).
T3 sequence (Q2TB90 whole entry): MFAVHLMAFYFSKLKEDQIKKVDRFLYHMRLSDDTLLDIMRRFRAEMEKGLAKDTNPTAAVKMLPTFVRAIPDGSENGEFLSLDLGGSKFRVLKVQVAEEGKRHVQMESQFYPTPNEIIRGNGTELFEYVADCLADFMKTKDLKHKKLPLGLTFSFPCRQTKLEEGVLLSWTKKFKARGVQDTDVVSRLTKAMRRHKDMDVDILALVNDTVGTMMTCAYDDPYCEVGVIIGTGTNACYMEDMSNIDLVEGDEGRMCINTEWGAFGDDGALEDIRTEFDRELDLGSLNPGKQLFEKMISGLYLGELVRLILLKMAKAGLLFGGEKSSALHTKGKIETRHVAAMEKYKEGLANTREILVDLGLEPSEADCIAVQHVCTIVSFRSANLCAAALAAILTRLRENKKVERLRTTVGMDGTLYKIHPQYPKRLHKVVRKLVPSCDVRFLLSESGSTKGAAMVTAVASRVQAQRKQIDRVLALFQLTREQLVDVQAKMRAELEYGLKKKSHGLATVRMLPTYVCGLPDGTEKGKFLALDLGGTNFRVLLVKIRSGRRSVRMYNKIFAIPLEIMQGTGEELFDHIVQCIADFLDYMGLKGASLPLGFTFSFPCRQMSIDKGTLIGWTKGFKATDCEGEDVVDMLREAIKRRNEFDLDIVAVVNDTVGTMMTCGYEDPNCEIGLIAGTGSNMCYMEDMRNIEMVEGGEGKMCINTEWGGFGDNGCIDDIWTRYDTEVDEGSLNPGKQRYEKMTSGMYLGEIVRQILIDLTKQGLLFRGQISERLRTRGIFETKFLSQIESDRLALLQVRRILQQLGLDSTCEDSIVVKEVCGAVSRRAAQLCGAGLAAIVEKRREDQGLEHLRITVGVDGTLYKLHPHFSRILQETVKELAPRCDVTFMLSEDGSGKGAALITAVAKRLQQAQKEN
In words: activation of HKDC1 glucose phosphorylation – biochemical, W721R variant, dose response (AID 504730). In kind it is functional.

In data set [5] the target is T4, Lysosomal acid glucosylceramidase (Homo sapiens, UniProt P04062).
T4 sequence (P04062 whole entry): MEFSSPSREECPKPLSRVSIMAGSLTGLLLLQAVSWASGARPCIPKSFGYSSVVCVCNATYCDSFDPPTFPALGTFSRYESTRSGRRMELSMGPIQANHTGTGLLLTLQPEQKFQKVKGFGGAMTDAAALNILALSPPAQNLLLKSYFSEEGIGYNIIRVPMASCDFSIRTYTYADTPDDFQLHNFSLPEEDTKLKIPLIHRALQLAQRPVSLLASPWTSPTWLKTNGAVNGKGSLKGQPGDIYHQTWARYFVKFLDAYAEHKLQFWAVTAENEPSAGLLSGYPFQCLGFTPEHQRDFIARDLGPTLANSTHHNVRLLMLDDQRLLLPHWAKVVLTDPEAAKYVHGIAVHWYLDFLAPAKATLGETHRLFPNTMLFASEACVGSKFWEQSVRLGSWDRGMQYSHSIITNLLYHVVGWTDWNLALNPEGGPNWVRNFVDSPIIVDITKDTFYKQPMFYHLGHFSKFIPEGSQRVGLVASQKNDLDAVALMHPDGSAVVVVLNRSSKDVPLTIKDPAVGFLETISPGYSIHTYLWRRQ
Put plainly: Dose response cell-based high throughput screening assay to identify enhancers of beta-glucosidase activity. [Related pubchem assays: 784 ]. The class given is functional.

Data set [6] in a line: Late stage assay provider results from the probe development effort to identify inhibitors of Protein Phosphatase Methylesterase 1 (PME-1): luminescence-based […] dose response assay to determine cytotoxicity of inhibitor compounds. [Related pubchem assays (depositor defined):AID2130, AID2143, AID2171, AID2174, AID2177, AID2232, AID2233, AID2291, AID2363, AID2365, AID2366, AID2368, AID2369, AID2371, AID463124, AID463130, AID463131, AID463132, AID463146, AID463149] Panel member name: Serum-free Media. The class given is toxicity.

Data set [7] can be described thus: Late stage assay provider results from the probe development effort to identify inhibitors of Protein Phosphatase Methylesterase 1 (PME-1): luminescence-based biochemical dose response assay to determine cytotoxicity of inhibitor compounds. [Related pubchem assays (depositor defined):AID2130, AID2143, AID2171, AID2174, AID2177, AID2232, AID2233, AID2291, AID2363, AID2365, AID2366, AID2368, AID2369, AID2371, AID463124, AID463130, AID463131, AID463132, AID463146, AID463149] Panel member name: Fetal Calf Serum. The class given is toxicity.

Activity calls are given as the source filed them. Bounds are passed on as bounds.

G-protein coupled receptor 55, sequence (Q9Y2T6 whole entry): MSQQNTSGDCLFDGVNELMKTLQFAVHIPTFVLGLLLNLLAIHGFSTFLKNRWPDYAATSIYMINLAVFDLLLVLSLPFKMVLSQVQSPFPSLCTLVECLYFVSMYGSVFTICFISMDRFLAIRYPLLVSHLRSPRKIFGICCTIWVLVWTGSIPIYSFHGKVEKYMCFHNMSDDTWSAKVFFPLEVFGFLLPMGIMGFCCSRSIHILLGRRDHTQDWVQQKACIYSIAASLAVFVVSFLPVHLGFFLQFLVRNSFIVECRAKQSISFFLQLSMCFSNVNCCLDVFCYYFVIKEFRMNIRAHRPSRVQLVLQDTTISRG

`CCC(C)N1C(=O)/C(=C/c2c(NCCCOC(C)C)nc3c(C)cccn3c2=O)SC1=S` (stereo not given): the figures for the IC50 (at Ephrin type-A receptor 4; in data set [1]; in [2]) were 9.88 µM (active), > 20 µM (inactive) and > 80 µM (inactive), respectively. The EC50 in data set [3] was 0.532 µM (active).

Consider `O=S(=O)(NC1c2cccc3cccc(c23)C1N1CCNCC1)c1ccccc1` (stereo not given), for which the EC50 at Hexokinase-1 was 13.6 µM (active); at Hexokinase HKDC1 it was 11.7 µM (active); in data set [5], 1.66 µM (active). For the same compound, in data set [4], the IC50 is < 0.4 µM (not active).

With `CC[C@]1(c2ccccc2C)C(=O)N(C(=O)OC)N1C(=O)OC`, the CC50 in data set [6] and in data set [7] was > 50 µM (inactive) in each case.
